By AUC(0-inf) is commonly meant total exposure, with the tail of the curve extrapolated. By AUC(0-t) is commonly meant the area under the concentration-time curve up to a stated or last time point. As usually defined, the Cmax is the peak of the concentration-time curve. As a reminder, the MRT last is a mean duration of stay, worked out from the concentration-time curve. In general, Tmax refers to the time at which the peak concentration occurs. As a reminder, the Vd is the apparent volume that relates the amount in the body to the concentration in plasma or blood. For orientation: clearance means the rate of elimination divided by the concentration.

We go through two compounds from PMC10545747, “Development of cyclopeptide inhibitors of cGAS targeting protein-DNA interaction and phase separation” (Nature Communications, 2023).

Series [1] deals with T1, hcGAS-FL (D191R) mutant + FAM-ISD (Homo sapiens, UniProt Q8N884, D191R).
T1 construct: The gene encoding full-length human cGAS (hcGAS-FL); 6xHis-SUMO (N, cleaved yes); made in house; host or cells: Escherichia coli BL21 (DE3)
Nature of the series: Fluorescence polarization competition of FAM-ISD binding. Background: In fluorescence polarisation assays a small probe gives low polarisation when free and higher when bound to something large.
Excerpt: Samples were dispensed in 30 μ L final volumes per well into a 384-well flat-bottom black plate (Corning 3575). The polarization was detected by a microplate reader (BioTek Synergy H1) with a fluorescence polarization filter cube (excitation wavelength: 485 ± 10 nm; emission wavelength: 528 ± 10 nm) immediately.

For series [2], the system named is murine fibroblast L929 cells. Briefly: qPCR of Ifnb1/Cxcl10 mRNA in L929 cells (ISD or HSV-1). The series is classed as cell-based, mouse. Also on record: key to Ifnb1 mRNA (Fig. S2c) / Cxcl10 mRNA (Fig. S2c) / Ifnb1 mRNA (Fig. S2d) / Cxcl10 mRNA (Fig. S2d): mRNA level normalized to GAPDH (relative expression). As for the experimental part:
The indicated cells were stimulated with either ISD (Sangon Biotech), HSV-1 (Provided by Dr. Zhengfan Jiang), HSV60mer (Sangon Biotech), SATE-cddA[70], 2’3’-cGAMP (Invivogen, Cat# tlrl-nacga23-1), ADU-S100 (MedChemExpress, Cat# HY-12885A) or Poly(I:C) (Invivogen, Cat# tlrl-pic) after XQ2 or XQ2B treatment. Total RNA was isolated from indicated cells that incubated with the drugs for indicated time or mice tissues by using NucleoZOL reagent (MACHEREY-NAGEL) according to the manufacturer’s instructions. The quantifications of mRNA levels were carried out by real-time PCR using a PerfectStart® Uni RT&qPCR Kit (TransGen Biotech) on the QuantStudio 5 qPCR machine (Applied Biosystems). Samples were carried out in triplicate and the target CT values were normalized to GAPDH CT values. Primers of qPCR used in this study can be found in Supplementary Table S2. […]
(c) L929, p = 0.0005 (Ifnb1),
BMDMs, p = 0.0001 (Ifnb1), p < 0.0001 (Cxcl10).
representative of three independent experiments in (a-g). (Data are presented as mean ± SD, n = 3 independent
Source data are provided as a Source Data file.

A short description of series [3]: Pharmacokinetics after intravenous administration. The settings on record: C57BL/6, mouse, whole blood, 10 mg/kg.
Description: Whole blood samples were collected in EDTA-K2 surface-coated tubes at 0.083, 0.25, 0.5, 1, 2, 5, 7, 24 h post administration. The results were analyzed by LC-MS.
A further series deals with Trex1^-/- mice. Briefly: Trex1^-/- mice model of autoimmune disease (survival, H&E, heart qPCR, antinuclear antibody). The series is classed as in vivo, mouse. Also on record: Score per animal, Heart (Fig. 7d) / Score per animal, Stomach (Fig. 7d) / Score per animal, Tongue (Fig. 7d) / Score per animal, Kidney (Fig. 7d) / Score per animal, Muscle (Fig. 7d): scale not given here; Ifnb1 mRNA level (Fig. 7e) / Cxcl10 mRNA level (Fig. 7e) / Il6 mRNA level (Fig. 7e): unit not given here. The text has this:
Aberrant accumulation of cytosolic self-dsDNA caused by loss-of-function mutations in Trex1 leads to overactivation of cGAS-STING pathway, which is associated with autoinflammatory diseases. To evaluate whether the optimized analogue XQ2B inhibits the overactivation of cGAS-STING pathway due to Trex1 deficiency, we first tested the effects of XQ2B on the expression of Ifnb1, Cxcl10 and Il6 in BMDMs harvested from Trex1^-/- mice (Supplementary Fig. 9a, b). […] We next evaluated the anti-inflammatory effect of XQ2B in Trex1^-/- mice. XQ2B (10 mg/kg) was intravenously injected into mice every other day. Six animals from each group were sacrificed on day seven to assess tissue pathology, and the rest (10 mice per group) were used to analyze survival for up to 11 days (Fig. 7b). […] Mice were killed and tissues were collected on day seven for histology and mRNA analysis.
C57BL/6 6–8 weeks old wild type (WT) mice were purchased from Gempharmatech. C57BL/6 Trex1^+/- mice were purchased from Cyagen. Trex1^-/- mice were generated by further mating the male and female Trex1^+/- mice, and 8-week-old male Trex1^-/- mice were used in the experiment. Mice were housed in groups of up to 5 mice/cage at 18 °C − 24 °C ambient temperatures with 40–60% humidity. Mice were maintained on a 12 h light/ dark cycle 6 am to 6 pm. Food and water were available ad libitum. Femurs and tibias were removed from sex-matched mice of 6–8 weeks old, and the ends were clipped. Marrow was pushed from bones by using a syringe, and cell clumps were broken apart into cell particles by pipetting in PBS, and passed through a 70 μm cell strainer. Cells were resuspended in red blood cell lysis buffer (Solarbio) for 5 min after being centrifuged with 200 × g for 5 min, and were resuspended in cell culture media (DMEM) with an additional M-CSF (50 ng/ml) after centrifugation, and then were seeded into a 12-well plate. Half of the cell culture media was replaced with a fresh medium on the third day, and performed a complete media change on the fifth day. BMDMs were used for subsequent experiments after the seventh day. All the animal experiments in these studies were approved and overseen by the ethics committee of the Laboratory Animal Center of Peking University Shenzhen Graduate School in accordance with the Policy on the Care, Welfare, and Treatment of Laboratory Animals. The assigned approval or accreditation number is AP0020005.
Tissues were resected and fixed successively in 4% paraformaldehyde, and embedded in paraffin according to the standard procedure, and then sectioned into 10-μm slices and placed on positively charged microscope slides. Sections of the brain were subjected to immunohistochemical (IHC) staining with an anti-HSV-1 antibody (Abcam, 1:100) and HRP-conjugated anti-rabbit IgG antibody (Cell Signaling, Cat# 7074, 1:200) according to standard procedures. Sections of the heart, stomach, tongue, kidney and muscle were stained with hematoxylin and eosin. Tissue sections were visualized using an Olympus IX73 microscope (20× Objective).
Anti-nuclear antibodies were performed with 1:160 diluted sera by using a FLUORO HEPANA TEST kit (MBL BEIJING BIOTECH) according to the manufacturer’s protocols.
(In general: Real-time PCR tracks product formation cycle by cycle.)

Where [4] appears, read: 10 mg/kg i.v. every other day, day seven.

Molecules are shown by their SMILES. Several values for one entry are separate records, joined by “and”; a condition that tells them apart may be missing. Identical values can stand only once. Entries after “also recorded” stand apart in the source; their conditions may differ. Square brackets hold non-standard residues; d marks the D form. Peptide text beside a SMILES is read from it.

T1 sequence (Q8N884 whole entry D191R): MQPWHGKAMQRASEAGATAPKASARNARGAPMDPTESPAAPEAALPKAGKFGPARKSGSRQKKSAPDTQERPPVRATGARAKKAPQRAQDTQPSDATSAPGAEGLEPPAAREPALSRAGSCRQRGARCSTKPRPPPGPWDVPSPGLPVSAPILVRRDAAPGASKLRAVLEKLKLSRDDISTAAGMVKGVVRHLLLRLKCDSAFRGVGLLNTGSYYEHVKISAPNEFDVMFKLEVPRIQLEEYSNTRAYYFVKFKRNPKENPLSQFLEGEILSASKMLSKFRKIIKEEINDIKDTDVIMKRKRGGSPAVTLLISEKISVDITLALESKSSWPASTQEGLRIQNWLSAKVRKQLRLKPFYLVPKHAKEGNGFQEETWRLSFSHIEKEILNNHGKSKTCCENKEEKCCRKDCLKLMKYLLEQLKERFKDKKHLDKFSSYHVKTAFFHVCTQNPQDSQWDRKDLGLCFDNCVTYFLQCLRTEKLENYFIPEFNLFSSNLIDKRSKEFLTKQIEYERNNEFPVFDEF

With `CC(C)C[C@@H]1NC(=O)[C@H](CCCNC(=N)N)NC(=O)[C@H](C(C)C)NC(=O)[C@@H]2CCCN2C(=O)[C@@H](Cc2ccccc2)NC(=O)[C@H](CC(C)C)NC(=O)[C@H](CCCNC(=N)N)NC(=O)[C@H](C(C)C)NC(=O)[C@H](C)NC(=O)[C@@H](Cc2ccccc2)NC1=O` [XQ2, Cyclo (LfAVRLfPVR)] (cyclo(L[dF]AVRL[dF]PVR)), the “inhibition of dsDNA binding to hcGAS-FL (D191R), FP” value in series [1] is recorded as “markedly reduced”. Moreover, the “Ifnb1 and Cxcl10 expression induced by ISD and HSV-1” value in series [2] (L929, 10 μM) is “significantly inhibited the expression of Ifnb1 and its downstream gene Cxcl10”. Moreover, in series [2] (L929, HSV-1+XQ2), the “Cxcl10 mRNA (Fig. S2d)” value was 14.7732 and 16.7433 and 18.5165; the “Ifnb1 mRNA (Fig. S2d)” value was 2.433 and 2.873 and 2.57. In addition, in series [2] (L929, ISD+XQ2), the “Cxcl10 mRNA (Fig. S2c)” value was 490.131 and 497.538 and 429.114; the “Ifnb1 mRNA (Fig. S2c)” value was 47.632 and 43.4073 and 39.6029. Further, in series [2] (L929, XQ2 alone), the “Cxcl10 mRNA (Fig. S2c)” value is 1.1537 and 1.297 and 1.725; the “Cxcl10 mRNA (Fig. S2d)” value is 1.1537 and 1.297 and 1.725; the “Ifnb1 mRNA (Fig. S2c)” value was 1.659 and 1.773 and 1.653; the “Ifnb1 mRNA (Fig. S2d)” value was 1.659 and 1.773 and 1.653.

Turning to `CC(C)C[C@@H]1NC(=O)[C@H](CCCNC(=N)N)NC(=O)[C@H](C(C)C)NC(=O)[C@@H]2CCCN2C(=O)[C@@H](Cc2ccccc2)NC(=O)[C@H](CC(C)C)NC(=O)[C@H](CCCNC(=N)N)NC(=O)[C@H]([C@@H](C)O)NC(=O)[C@H](C)NC(=O)[C@@H](Cc2ccccc2)NC1=O` [XQ2B] (cyclo([dF]ATRL[dF]PVRL)), in series [3], the AUC(0-inf) was 157 µg·h/mL, the AUC(0-t) was 135 µg·h/mL, the concentration peaked (Cmax) at 105 µg/mL and the MRT last worked out at 72 min. Moreover, in series [3], the Tmax was 4.98 min, the Vd was found to be 0.095 L/kg and the clearance was 1.18 mL/min/kg. In addition, in the series with Trex1^-/- mice (10 mg/kg i.v. every other day), the “serum level of antinuclear antibody” value is reported as “markedly reduced by XQ2B treatment”. Also, in the series on Trex1^-/- mice (setting [4]), the “heart Ifnb1, Cxcl10 and Il6 mRNA” value was “significantly suppressed the mRNA level of Ifnb1, Cxcl10 and Il6 caused by Trex1 deficiency”; the “tissue inflammation, H&E” value is recorded as “ameliorates rather than reverses the systemic inflammation in Trex1-/- mice; also recorded: significantly attenuated the inflammation”. In the series on Trex1^-/- mice (10 mg/kg i.v. every other day, up to 11 days, n = 10, 3 of 10 untreated died), the “survival of Trex1^-/- mice” value is on record as “none of the 10 mice treated with XQ2B died during treatment”. In addition, in the series with Trex1^-/- mice (KO(XQ2B)), the “Score per animal, Heart (Fig. 7d)” value was 5 (2×) and 8 (2×) and 6 and 4 and 7 and 9; the “Score per animal, Kidney (Fig. 7d)” value was 3 (2×) and 6 and 5 (2×) and 2 and 4 and 7; the “Score per animal, Muscle (Fig. 7d)” value was 4 (3×) and 2 and 6 and 3 (2×) and 5; the “Score per animal, Stomach (Fig. 7d)” value is 3 and 8 (2×) and 6 and 9 and 5 (2×) and 7. The “Score per animal, Tongue (Fig. 7d)” value with Trex1^-/- mice (KO(XQ2B)) is 3 and 7 (2×) and 8 and 5 (2×) and 6 and 4. Also, in the series with Trex1^-/- mice (Trex1 KO+XQ2B, per animal), the “Cxcl10 mRNA level (Fig. 7e)” value was 99.6532 and 144.536 and 126.503 and 174.75 and 186.166; the “Ifnb1 mRNA level (Fig. 7e)” value is 12.3782 and 6.326 and 6.444 and 5.852 and 6.524; the “Il6 mRNA level (Fig. 7e)” value was 3.8548 and 4.605 and 4.215 and 10.789 and 5.351.
